According to patent US11814367B2, “Inhibitors of glycogen synthase 1 (GYS1) and methods of use thereof” (Maze Therapeutics, Inc., priority 2021, dated 2023):

Assays:
[1] = molecular target: hGYS2 enzyme (recombinant hGYS2/GN1 protein) (Homo sapiens (Human), UniProt P54840); experiment: GYS2 coupled enzyme assay (PK/LDH); assay type: biochemical; conditions: geometric mean of at least 2 assay runs on separate days, read-out: Avg_IC50
How it was run: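 IC50 came from Hill fits of duplicate percent inhibition, based on control-normalized slopes of 340 nm NADH decline read each minute for 10 min. The reaction held recombinant hGYS2/GN1 (200 nM) with glycogen, UDP-glucose, G6P and PEP, plus PK/LDH coupling at pH 7.5 and 2.5% DMSO.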

[2] = molecular target: hGYS1 enzyme (recombinant hGYS1/GN1 protein) (Homo sapiens (Human), UniProt P13807); experiment: GYS1 coupled enzyme assay (PK/LDH); assay type: biochemical; conditions: hGYS1/GN1 50 nM, UDP-Glucose 0.8 mM, G6P 1 mM; geometric mean of at least 2 runs
Sequence of hGYS1 enzyme (recombinant hGYS1/GN1 protein) (P13807 whole entry): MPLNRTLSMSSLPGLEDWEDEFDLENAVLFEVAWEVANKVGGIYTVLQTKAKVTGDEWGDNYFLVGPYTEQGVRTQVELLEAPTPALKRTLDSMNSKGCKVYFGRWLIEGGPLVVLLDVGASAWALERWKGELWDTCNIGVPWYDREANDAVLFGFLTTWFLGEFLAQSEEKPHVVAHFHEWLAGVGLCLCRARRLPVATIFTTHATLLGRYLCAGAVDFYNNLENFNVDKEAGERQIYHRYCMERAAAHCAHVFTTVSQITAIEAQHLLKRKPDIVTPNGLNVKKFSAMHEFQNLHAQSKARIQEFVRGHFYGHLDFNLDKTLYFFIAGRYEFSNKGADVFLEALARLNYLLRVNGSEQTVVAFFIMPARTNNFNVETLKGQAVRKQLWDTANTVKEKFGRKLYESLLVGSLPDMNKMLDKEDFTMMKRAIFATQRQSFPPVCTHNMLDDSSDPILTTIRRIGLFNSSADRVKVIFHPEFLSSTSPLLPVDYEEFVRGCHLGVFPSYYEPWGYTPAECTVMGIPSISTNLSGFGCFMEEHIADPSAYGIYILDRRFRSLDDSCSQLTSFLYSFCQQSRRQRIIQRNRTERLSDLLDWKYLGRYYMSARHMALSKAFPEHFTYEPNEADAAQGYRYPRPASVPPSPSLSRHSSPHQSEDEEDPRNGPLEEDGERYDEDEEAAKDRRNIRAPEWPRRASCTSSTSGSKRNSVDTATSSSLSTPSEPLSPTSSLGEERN
Sequence of hGYS1 enzyme (recombinant hGYS1/GN1 protein) (P46976 whole entry partner): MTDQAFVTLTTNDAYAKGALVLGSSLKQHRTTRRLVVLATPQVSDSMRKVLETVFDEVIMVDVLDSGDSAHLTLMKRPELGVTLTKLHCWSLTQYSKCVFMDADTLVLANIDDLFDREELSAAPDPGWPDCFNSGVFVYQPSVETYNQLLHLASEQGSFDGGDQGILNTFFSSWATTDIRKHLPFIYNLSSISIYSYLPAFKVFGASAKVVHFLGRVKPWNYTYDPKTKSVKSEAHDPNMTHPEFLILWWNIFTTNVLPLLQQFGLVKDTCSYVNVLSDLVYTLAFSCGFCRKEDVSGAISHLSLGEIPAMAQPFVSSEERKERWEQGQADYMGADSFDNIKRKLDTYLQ

Sequence of hGYS2 enzyme (recombinant hGYS2/GN1 protein) (P54840 whole entry): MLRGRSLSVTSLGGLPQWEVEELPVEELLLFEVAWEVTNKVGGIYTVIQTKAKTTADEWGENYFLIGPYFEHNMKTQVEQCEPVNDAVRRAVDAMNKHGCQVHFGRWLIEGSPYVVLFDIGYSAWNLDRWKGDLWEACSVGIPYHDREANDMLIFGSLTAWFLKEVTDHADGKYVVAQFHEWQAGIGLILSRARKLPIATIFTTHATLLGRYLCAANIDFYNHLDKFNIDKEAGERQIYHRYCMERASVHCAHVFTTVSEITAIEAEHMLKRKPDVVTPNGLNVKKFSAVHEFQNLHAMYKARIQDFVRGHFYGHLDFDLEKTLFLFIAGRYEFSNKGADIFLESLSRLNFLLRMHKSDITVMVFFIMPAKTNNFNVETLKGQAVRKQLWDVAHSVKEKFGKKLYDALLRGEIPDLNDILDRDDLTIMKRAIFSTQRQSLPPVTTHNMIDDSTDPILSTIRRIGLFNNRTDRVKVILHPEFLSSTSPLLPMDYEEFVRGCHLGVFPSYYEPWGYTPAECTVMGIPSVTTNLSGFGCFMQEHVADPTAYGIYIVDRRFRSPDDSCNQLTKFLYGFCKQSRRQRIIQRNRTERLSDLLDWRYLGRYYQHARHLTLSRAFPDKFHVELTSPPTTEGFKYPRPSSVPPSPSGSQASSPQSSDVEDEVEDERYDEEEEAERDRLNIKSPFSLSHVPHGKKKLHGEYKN
Sequence of hGYS2 enzyme (recombinant hGYS2/GN1 protein) (P46976 whole entry partner): as the sequence (P46976 whole entry partner) above

IC50 [1] [nM] | IC50 [2] [nM] | Compound
> 100000 | 51 | CN(C)C(=O)NCC(=O)N1C[C@H](F)C[C@H]1C(=O)N[C@@H](c1ccccc1)c1ccc(C2CC2)c(F)c1 [Compound 441, (2S,4R)-N-[(S)-(4-cyclopropyl-3-fluorophenyl)(phenyl)methyl]-1-{2-[(dimethylcarbamoyl)amino]acetyl}-4-fluoropyrrolidine-2-carboxamide]
> 100000 | 142 | CC(C)c1ccc([C@@H](NC(=O)[C@@H]2C[C@@H]3C[C@@H]3N2C(=O)Cc2cnn[nH]2)c2ccccc2)cc1F [Compound 324, (1S,3S,5S)-N-[(S)-[3-fluoro-4-(propan-2-yl)phenyl](phenyl)methyl]-2-[2-(1H-1,2,3-triazol-5-yl)acetyl]-2-azabicyclo[3.1.0]hexane-3-carboxamide]
> 100000 | 186 | Cc1cc(C)n(CCC(=O)N2C[C@H](F)C[C@H]2C(=O)N[C@@H](c2ccccc2)c2ccc(C(C)C)cc2)n1 [Compound 106, (2S,4R)-1-[3-(3,5-dimethyl-1H-pyrazol-1-yl)propanoyl]-4-fluoro-N-[(S)-phenyl[4-(propan-2-yl)phenyl]methyl]pyrrolidine-2-carboxamide]
> 100000 | 188 | CC(C)c1ccc([C@@H](NC(=O)[C@@H]2C[C@@H](F)CN2C(=O)CCc2cncnc2)c2ccccc2)cc1 [Compound 60, (2S,4R)-4-fluoro-N-[(S)-phenyl[4-(propan-2-yl)phenyl]methyl]-1-[3-(pyrimidin-5-yl)propanoyl]pyrrolidine-2-carboxamide]
> 100000 | 20 | CC(C)c1ccc([C@@H](NC(=O)[C@@H]2C[C@@H](F)CN2C(=O)Cc2ccc3ncnn3c2)c2ccccc2)cc1 [Compound 118, (2S,4R)-4-fluoro-N-[(S)-phenyl[4-(propan-2-yl)phenyl]methyl]-1-(2-{[1,2,4]triazolo[1,5-a]pyridin-6-yl}acetyl)pyrrolidine-2-carboxamide]
> 100000 | 36 | Cc1nc(CC(=O)N2C[C@H](F)C[C@H]2C(=O)N[C@@H](c2ccccc2)c2ccc(C(C)C)cc2)c(C)s1 [Compound 69, (2S,4R)-1-[2-(2,5-dimethyl-1,3-thiazol-4-yl)acetyl]-4-fluoro-N-[(S)-phenyl[4-(propan-2-yl)phenyl]methyl]pyrrolidine-2-carboxamide]
> 100000 | 10 | CC(C)c1ccc([C@@H](NC(=O)[C@@H]2C[C@@H](F)CN2C(=O)CNC(=O)N(C)C)c2ccccc2)cc1 [Compound 67, (2S,4R)-1-{2-[(dimethylcarbamoyl)amino]acetyl}-4-fluoro-N-[(S)-phenyl[4-(propan-2-yl)phenyl]methyl]pyrrolidine-2-carboxamide]
> 100000 | 255 | CC(=O)N1CCCC1CCC(=O)N1C[C@H](F)C[C@H]1C(=O)N[C@@H](c1ccccc1)c1ccc(C(C)C)cc1 (stereo partly drawn) [Compound 172, (2S,4R)-1-[3-(1-acetylpyrrolidin-2-yl)propanoyl]-4-fluoro-N-[(S)-phenyl[4-(propan-2-yl)phenyl]methyl]pyrrolidine-2-carboxamide]
> 100000 | 106 | CC(C)c1ccc([C@@H](NC(=O)[C@@H]2C[C@@H](F)CN2C(=O)C(C)n2ccnc2)c2ccccc2)cc1 (stereo partly drawn) [Compound 44, (2S,4R)-4-fluoro-1-[2-(1H-imidazol-1-yl)propanoyl]-N-[(S)-phenyl[4-(propan-2-yl)phenyl]methyl]pyrrolidine-2-carboxamide]
> 100000 | 34 | CC(C)c1ccc([C@@H](NC(=O)[C@@H]2C[C@@H](F)CN2C(=O)Cn2nnc3ccccc32)c2ccccc2)cc1 [Compound 68, (2S,4R)-1-[2-(1H-1,2,3-benzotriazol-1-yl)acetyl]-4-fluoro-N-[(S)-phenyl[4-(propan-2-yl)phenyl]methyl]pyrrolidine-2-carboxamide]
> 100000 | 36 | CC(C)c1ccc([C@@H](NC(=O)[C@@H]2C[C@@H](F)CN2C(=O)Cc2cnccn2)c2ccccc2)cc1 [Compound 26, (2S,4R)-4-fluoro-N-[(S)-phenyl[4-(propan-2-yl)phenyl]methyl]-1-[2-(pyrazin-2-yl)acetyl]pyrrolidine-2-carboxamide]
> 100000 | 206 | CC(=O)N1CC(C)(C(=O)N2C[C@H](F)C[C@H]2C(=O)N[C@@H](c2ccccc2)c2ccc(C(C)C)cc2)C1 [Compound 146, (2S,4R)-1-(1-acetyl-3-methylazetidine-3-carbonyl)-4-fluoro-N-[(S)-phenyl[4-(propan-2-yl)phenyl]methyl]pyrrolidine-2-carboxamide]
> 100000 | 50 | Cc1nnc(CC(=O)N2C[C@H](F)C[C@H]2C(=O)N[C@@H](c2ccccc2)c2ccc(C(C)C)cc2)o1 [Compound 10, (2S,4R)-4-fluoro-1-[2-(5-methyl-1,3,4-oxadiazol-2-yl)acetyl]-N-[(S)-phenyl[4-(propan-2-yl)phenyl]methyl]pyrrolidine-2-carboxamide]
> 100000 | 181 | CC(=O)N1CCOC(C(=O)N2C[C@H](F)C[C@H]2C(=O)N[C@@H](c2ccccc2)c2ccc(C(C)C)cc2)C1 (stereo partly drawn) [Compound 141, (2S,4R)-1-(4-acetylmorpholine-2-carbonyl)-4-fluoro-N-[(S)-phenyl[4-(propan-2-yl)phenyl]methyl]pyrrolidine-2-carboxamide]
> 100000 | 211 | CC(=O)N1CC[C@@]2(C1)C(=O)NCC2C(=O)N1C[C@H](F)C[C@H]1C(=O)N[C@@H](c1ccccc1)c1ccc(C(C)C)cc1 (stereo in doubt) [Compound 6, (2S,4R)-1-[(4S,5R)-7-acetyl-7-oxo-2,7-diazaspiro[4.4]nonane-4-carbonyl]-4-fluoro-N-[(S)-phenyl[4-(propan-2-yl)phenyl]methyl]pyrrolidine-2-carboxamide]
> 100000 | 49 | CC(C)c1ccc([C@@H](NC(=O)[C@@H]2C[C@@H](F)CN2C(=O)CN2C(=O)CNC2=O)c2ccccc2)cc1 [Compound 117, (2S,4R)-1-[2-(2,5-dioxoimidazolidin-1-yl)acetyl]-4-fluoro-N-[(S)-phenyl[4-(propan-2-yl)phenyl]methyl]pyrrolidine-2-carboxamide]
> 100000 | 70 | Cc1nc(CC(=O)N2C[C@H](F)C[C@H]2C(=O)N[C@@H](c2ccccc2)c2ccc(C(C)C)cc2)no1 [Compound 29, (2S,4R)-4-fluoro-1-[2-(5-methyl-1,2,4-oxadiazol-3-yl)acetyl]-N-[(S)-phenyl[4-(propan-2-yl)phenyl]methyl]pyrrolidine-2-carboxamide]
> 100000 | 50 | Cc1noc(C)c1CC(=O)N1C[C@H](F)C[C@H]1C(=O)N[C@@H](c1ccccc1)c1ccc(C(C)C)cc1 [Compound 70, (2S,4R)-1-[2-(3,5-dimethyl-1,2-oxazol-4-yl)acetyl]-4-fluoro-N-[(S)-phenyl[4-(propan-2-yl)phenyl]methyl]pyrrolidine-2-carboxamide]
> 100000 | 853 | CC(=O)N1[C@@H](C)CC[C@H]1C(=O)N[C@@H](c1ccccc1)c1ccc(C(C)C)cc1 [Compound 214, (2S,5S)-1-acetyl-5-methyl-N-[(S)-phenyl[4-(propan-2-yl)phenyl]methyl]pyrrolidine-2-carboxamide]
> 100000 | 235 | CC(C)c1ccc([C@@H](NC(=O)[C@@H]2C[C@@H](F)CN2C(=O)C2(C)COC2)c2ccccc2)cc1 [Compound 25, (2S,4R)-4-fluoro-1-(3-methyloxetane-3-carbonyl)-N-[(S)-phenyl[4-(propan-2-yl)phenyl]methyl]pyrrolidine-2-carboxamide]
> 100000 | 220 | CC(=O)NCCC(=O)N1C[C@H](F)C[C@H]1C(=O)N[C@@H](c1ccccc1)c1ccc(C(C)C)cc1 [Compound 190, (2S,4R)-1-(3-acetamidopropanoyl)-4-fluoro-N-[(S)-phenyl[4-(propan-2-yl)phenyl]methyl]pyrrolidine-2-carboxamide]
> 100000 | 179 | CC(=O)N1CCC2(CC1)CC2C(=O)N1C[C@H](F)C[C@H]1C(=O)N[C@@H](c1ccccc1)c1ccc(C(C)C)cc1 (stereo partly drawn) [Compound 174, (2S,4R)-1-{6-acetyl-6-azaspiro[2.5]octane-1-carbonyl}-4-fluoro-N-[(S)-phenyl[4-(propan-2-yl)phenyl]methyl]pyrrolidine-2-carboxamide]
> 100000 | 168 | CC(=O)N1CCC(C(=O)N2C[C@H](F)C[C@H]2C(=O)N[C@@H](c2ccccc2)c2ccc(C(C)C)cc2)CC1 [Compound 144, (2S,4R)-1-(1-acetylpiperidine-4-carbonyl)-4-fluoro-N-[(S)-phenyl[4-(propan-2-yl)phenyl]methyl]pyrrolidine-2-carboxamide]
> 100000 | 145 | CC(C)c1ccc([C@@H](NC(=O)[C@@H]2C[C@@H](F)CN2C(=O)C(C)(C)c2nnco2)c2ccccc2)cc1F [Compound 334]
> 100000 | 363 | O=C(N[C@@H](c1ccccc1)c1ccc(C2CC2)c(F)c1)[C@@H]1C[C@@H](F)CN1C(=O)Cc1nnco1 [Compound 426, (2S,4R)-N-[(S)-(4-cyclopropyl-3-fluorophenyl)(phenyl)methyl]-4-fluoro-1-[2-(1,3,4-oxadiazol-2-yl)acetyl]pyrrolidine-2-carboxamide]
> 100000 | 135 | CC(=O)N1CC2(CCC(C(=O)N3C[C@H](F)C[C@H]3C(=O)N[C@@H](c3ccccc3)c3ccc(C(C)C)cc3)O2)C1 (stereo partly drawn) [Compound 163, (2S,4R)-1-{2-acetyl-5-oxa-2-azaspiro[3.4]octane-6-carbonyl}-4-fluoro-N-[(S)-phenyl[4-(propan-2-yl)phenyl]methyl]pyrrolidine-2-carboxamide]
